Tests used:
Rattus norvegicus [1] = experiment: Analgesic activity against p-benzoquinone induced writhing in albino rat model assessed as protection rate at 28 uM/kg, ip measured after 30 mins relative to control; format: functional; details: 0.5 h, at 28 µmol/kg
Rattus norvegicus [2] = experiment: Analgesic activity against p-benzoquinone induced writhing in albino rat model assessed as protection rate at 28 uM/kg, ip measured after 30 mins relative to indomethacin; format: functional; details: 0.5 h, at 28 µmol/kg
[3] = Ulcerogenic activity in fasted albino rat assessed as incidence of ulceration at 28 uM/kg, po administered for 3 consecutive days (reference value: 0 %); format: toxicity, organism-based; details: in vivo, 72 h, time 3 day
[4] = Toxicity in albino rat assessed as decrease in body weight at; details: in vivo, 24 h, dose <140 µM/Kg
[5] = biological target: T1, Prostaglandin G/H synthase 1 (Ovis aries, UniProt P05979); experiment: Inhibition of ovine COX-1 using arachidonic acid as substrate by fluorescence assay
T1 sequence (P05979 whole entry): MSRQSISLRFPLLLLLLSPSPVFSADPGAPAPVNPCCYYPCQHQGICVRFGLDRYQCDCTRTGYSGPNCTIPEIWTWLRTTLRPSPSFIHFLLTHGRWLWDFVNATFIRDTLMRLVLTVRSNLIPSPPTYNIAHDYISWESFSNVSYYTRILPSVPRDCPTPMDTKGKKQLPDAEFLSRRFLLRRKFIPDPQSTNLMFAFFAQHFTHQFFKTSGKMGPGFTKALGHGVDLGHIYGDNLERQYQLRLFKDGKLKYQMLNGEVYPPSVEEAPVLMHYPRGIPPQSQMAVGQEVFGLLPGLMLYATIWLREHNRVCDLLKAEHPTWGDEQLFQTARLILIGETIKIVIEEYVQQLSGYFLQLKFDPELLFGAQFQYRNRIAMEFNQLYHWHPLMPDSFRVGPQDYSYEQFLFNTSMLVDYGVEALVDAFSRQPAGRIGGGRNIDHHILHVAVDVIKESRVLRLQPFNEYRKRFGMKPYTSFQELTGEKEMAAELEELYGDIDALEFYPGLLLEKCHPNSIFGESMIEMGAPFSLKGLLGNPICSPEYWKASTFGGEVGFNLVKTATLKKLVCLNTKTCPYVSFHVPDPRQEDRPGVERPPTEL

Rattus norvegicus [6] = experiment: Anti-inflammatory activity Wistar albino rat model of carragenan-induced paw edema assessed as inhibition of inflammation at 28 uM/kg, ip measured after 3 hrs by plethysmometer relative to control; format: functional; set-up: scale not given: the % may be the effect or the level left; details: at 28 µmol/kg
Rattus norvegicus [7] = experiment: Anti-inflammatory activity in Wistar albino rat model of carragenan-induced paw edema assessed as reduction in edema thickness at 28 uM/kg, ip measured after 3 hrs by plethysmometer (reference value: 1.64 +/- 0.04 millimeter); format: functional; set-up: scale not given: the % may be the effect or the level left; details: at 28 µmol/kg
Rattus norvegicus [8] = experiment: Anti-inflammatory activity in Wistar albino rat model of carragenan-induced paw edema assessed as inhibition of inflammation at 28 uM/kg, ip measured after 2 hrs by plethysmometer relative to control; format: functional
[9] = Ulcerogenic activity in fasted albino rat assessed as ulcer index at 28 uM/kg, po administered for 3 consecutive days (reference value: 0); format: toxicity, organism-based; details: in vivo, 72 h, time 3 day
Rattus norvegicus [10] = experiment: Anti-inflammatory activity in Wistar albino rat model of carragenan-induced paw edema assessed as reduction in edema thickness at 28 uM/kg, ip measured after 2 hrs by plethysmometer (Rvb =1.6 +/- 0.12 millimeter); format: functional
[11] = Ulcerogenic activity in fasted albino rat assessed as severity of ulcers at 28 uM/kg, po administered for 3 consecutive days (reference value: 0 %); format: toxicity, organism-based; details: in vivo, 72 h, time 3 day
[12] = Ulcerogenic activity in fasted albino rat assessed as number of ulcers at 28 uM/kg, po administered for 3 consecutive days (reference value: 0 %); format: toxicity, organism-based; details: in vivo, 72 h, time 3 day

Compound	Activity (Rattus norvegicus [1]) [%]	Activity (Rattus norvegicus [2]) [%]	Activity [3] [%]	Activity [4]	IC50 [5] [µM]	Activity (Rattus norvegicus [6]) [%]	Activity (Rattus norvegicus [7]) [%]	Activity (Rattus norvegicus [8]) [mm]	UI [9]	Activity (Rattus norvegicus [10]) [mm]	Activity [11] [%]	Activity [12] [%]
Cc1nc2oc(-c3ccc(Cl)cc3)nn2c(=O)c1CCN1CCOCC1	66	80										
COc1ccc(N2CCN(CCc3c(C)nc4oc(-c5ccccc5)nn4c3=O)CC2)cc1	100	120	2	Non-Toxic	0.14	61.7	73.12	0.62	3.8	0.43	1	0.8
Cc1nc2sc(-c3ccc(Cl)cc3)nn2c(=O)c1CCN1CCCCC1	50	60										
COc1ccc(N2CCN(CCc3c(C)nc4sc(-c5ccc(Cl)cc5)nn4c3=O)CC2)cc1	66	60										
Cc1nc2oc(-c3ccccc3)nn2c(=O)c1CCN1CCOCC1	50	60										
Cc1nc2oc(-c3ccccc3)nn2c(=O)c1CCN1CCN(c2ccccc2)CC1	50	60										
Cc1nc2sc(-c3ccc(Cl)cc3)nn2c(=O)c1CCN1CCN(c2ccccc2)CC1	66	60										
COc1ccc(N2CCN(CCc3c(C)nc4oc(-c5ccc(Cl)cc5)nn4c3=O)CC2)cc1	83	100	4	Non-Toxic	0.35	91	73.12	0.14	5.8	0.43	1	0.8
Cc1nc2oc(-c3ccc(Cl)cc3)nn2c(=O)c1CCN1CCCCC1	66	80										
Cc1nc2sc(-c3ccc(Cl)cc3)nn2c(=O)c1CCN1CCOCC1	66	80										
Cc1nc2oc(-c3ccccc3)nn2c(=O)c1CCN1CCCCC1	83	100	4	Non-Toxic	0.35	56.16	76.25	0.7	7.4	0.38	1.2	2.2
Cc1nc2oc(-c3ccc(Cl)cc3)nn2c(=O)c1CCN1CCN(c2ccccc2)CC1	83	100	4	Non-Toxic	0.148	70.73	94.75	0.48	5.6	0.08	1	0.6
COc1ccc2c(c1)c(CC(=O)O)c(C)n2C(=O)c1ccc(Cl)cc1 [INDOMETHACIN]	83	100	8			66.46	73.29	0.55	11.78	0.42	1.18	2.6
